Source: article PMC12916490 (Molecular Psychiatry, 2025)

Tests used:
[1] = biological target: h5-HT2B (Homo sapiens, UniProt P41595); experiment: Radioligand binding, h5-HT2B receptor ([3H]LSD)
[2] = biological target: h5-HT2A (Homo sapiens, UniProt P28223); experiment: Arachidonic acid release (Gαi/o,12/13 marker), h5-HT2A; format: cell-based; design: expressed in transfected cells; host or cells: HEK 293 cells (membrane preparation); conditions: for Emax: read-out: Arachidonic acid release Emax h5-HT2A (95% CI)
Experimental: Activation of h5-HT2A, h5-HT2B, and h5-HT2C receptors was examined by measuring the accumulation of inositol monophosphate (IP1) as a marker for Gαq-mediated signaling. For h5-HT2A, additional assays measured β-arrestin 2 recruitment and arachidonic acid release, the latter serving as a marker of Gαi/o,12/13 activation. The methodology is described in detail in the Supplementary information.
The IC50 values from the radioligand binding assays were determined by nonlinear regression, using three independent concentration-response curves fitted to a one-site model. The Cheng-Prusoff equation was used to calculate Kᵢ values for the competing ligands. EC50 values were determined by applying nonlinear regression to concentration-response curves. Bias factors (β) were calculated based on the relative intrinsic activity approach. More detailed information can be found in the Supplementary information. Mean values for total number of HTR, change in body temperature from pre to post session (Δ°C), and total distance traveled (cm) for each drug dose were compared (p < 0.05) via Welch’s ANOVA with Dunnett’s T3 post test, comparing all doses to respective vehicle controls (0 mg/kg). Welch’s ANOVA with Dunnett’s T3 post test was also used to compare drug concentrations, but the data were compared to DOM in this case. Dose–response relationships for HTR and locomotor activities were plotted using bell-shaped curve fits, while temperature change data were plotted using four-parameter non-linear regression curve fits. The ascending phase of the HTR curve for each drug was used to determine ED50 potency values from four parameter non-linear regression fits. For combined DOM and DOAM administration, the plasma, brain tissue, and brain dialysate drug concentrations were compared using paired t-tests (p < 0.05). […]
the β-arrestin 2 molecule in the NanoBiT system) were seeded at a density of 50,000 cells per well in poly - D-lysine-coated 96-well plates in medium containing 10% dialyzed FBS. The plate was then incubated at […]
The following day, the cells were washed twice with 150 µL HBSS, and 100 µL HBSS was subsequently added to each well. Thereafter, 25 µL of substrate (1 :20 diluted in buffer) was added, and […]
agonist solutions was added, and the signal was monitored for 2 h. Drug dilutions in HBSS were made from 10 mM stock solutions in DMSO , yielding concentration ranges from 10 µM to 10 pM. All concentrations were run in duplicate and included the appropriate solvent controls. Efficacy was normalized to 5 -HT […]
3.2.3 Arachidonic acid release
Arachidonic acid release was assessed as a marker for Gαi/o,12/13 mediated signaling.
NIH/3T3 cells stably expressing the 5 -HT2A receptor were seeded at a density of 75,000 cells per well in a poly-D-lysine-coated 48-well plate. The following day, the cells were labeled with 300 μL [ 3H]arachidonic […]
Thereafter, the cells were washed 3 times for
(10 mM) of test substances were prepared in DMSO. The final dilution series of test substances dissolved […]
Thereafter, the plate was put on ice, and 400 μL incubation supernatant per well was transferred int o scintillation vials containing scintillation fluid (Ultimagold, Perkin Elmer, Schwerzenbach, Switzerland). The remaining supernatant was removed, and the cells were lysed with 1% sodium dodecyl sulfate lysis buffer. The obtained cell lysate was transferred into scintillation vials containing scintillation fluid. Radioactivity was measured on a liquid scintillation counter (Packard 1900 TR Tri-Carb Liquid Scintillation Counter; Packard Instrument Company). Efficacy was normalized to 5-HT activity.
3.2.4 Calculation of bias factors […]
using 5-HT as the reference agonist.
RApathway = EC50, i = EC50, ref×Emax,i […]

h5-HT2A, sequence (P28223 whole entry, looked up): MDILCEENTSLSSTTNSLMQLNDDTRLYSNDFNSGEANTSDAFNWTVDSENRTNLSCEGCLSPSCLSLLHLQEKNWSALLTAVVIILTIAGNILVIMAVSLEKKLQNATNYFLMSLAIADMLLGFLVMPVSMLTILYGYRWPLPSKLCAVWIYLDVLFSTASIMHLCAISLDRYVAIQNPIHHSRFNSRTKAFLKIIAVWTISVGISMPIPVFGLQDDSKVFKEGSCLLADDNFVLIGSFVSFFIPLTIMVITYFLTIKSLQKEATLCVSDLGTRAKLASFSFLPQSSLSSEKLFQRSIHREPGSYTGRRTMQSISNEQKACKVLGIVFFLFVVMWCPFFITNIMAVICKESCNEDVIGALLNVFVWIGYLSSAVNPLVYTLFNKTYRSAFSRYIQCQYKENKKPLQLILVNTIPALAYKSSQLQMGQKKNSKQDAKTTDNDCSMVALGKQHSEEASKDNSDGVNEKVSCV
h5-HT2B, sequence (P41595 whole entry): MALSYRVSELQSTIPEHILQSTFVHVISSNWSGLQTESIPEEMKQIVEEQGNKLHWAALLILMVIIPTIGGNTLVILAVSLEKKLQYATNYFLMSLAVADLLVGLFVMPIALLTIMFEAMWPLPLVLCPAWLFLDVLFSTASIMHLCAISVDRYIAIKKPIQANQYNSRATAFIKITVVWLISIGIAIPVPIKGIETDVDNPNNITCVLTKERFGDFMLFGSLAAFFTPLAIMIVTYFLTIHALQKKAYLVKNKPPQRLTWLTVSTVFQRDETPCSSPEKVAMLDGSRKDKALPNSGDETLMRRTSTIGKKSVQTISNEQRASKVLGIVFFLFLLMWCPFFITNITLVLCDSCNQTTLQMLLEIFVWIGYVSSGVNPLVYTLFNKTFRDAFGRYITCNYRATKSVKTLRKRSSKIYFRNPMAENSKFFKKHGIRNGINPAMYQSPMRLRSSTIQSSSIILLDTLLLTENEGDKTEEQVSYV

SMILES	Ki [1]	Agonist type for Gαi/o,12/13-mediated signaling at the 5-HT2A receptor [2]	Emax [2]	EC50 [2]
COc1ccc(OC)c(CC(C)N)c1.Cl (stereo not shown) [2,5-DMA, 2,5-Dimethoxyamphetamine hydrochloride]	5180 nM	high efficacy partial agonists	59%	
CCCc1cc(OC)c(CC(C)N)cc1OC.Cl (stereo not shown) [DOPR, 4-propyl-2,5-dimethoxyamphetamine hydrochloride]	126 nM		117%	0.86 nM
COc1cc(CC(C)N)c(OC)cc1C (stereo not shown) [DOM, 4-methyl-2,5-dimethoxyamphetamine]	149 nM	high efficacy partial agonists	75%	3.7 nM
CCCCc1cc(OC)c(CC(C)N)cc1OC (stereo not shown) [DOBU, 4-butyl-2,5-dimethoxyamphetamine]	162 nM	high efficacy partial agonists	74%	2 nM
CCc1cc(OC)c(CC(C)N)cc1OC (stereo not shown) [DOET, 4-ethyl-2,5-dimethoxyamphetamine]	174 nM	high efficacy partial agonists	88%	1.5 nM
CCCCCc1cc(OC)c(CC(C)N)cc1OC (stereo not shown) [DOAM, 4-amyl-2,5-dimethoxyamphetamine]	98 nM	high efficacy partial agonists	91%	2.4 nM
